Entries after “also recorded” stand apart in the source; their conditions may differ.
Legend:
[1] = Nicotine and benzoic acid octanol-water partitioning in unbuffered water; format: physicochemical
Method: The mobile phase was brought to pH 2.5 with H3PO4. The flow rate of the mobile phase was 1 mL/min, and the injection volume was 10 μL.

[2] = Nicotine octanol-water partitioning with various ion pairing agents and quantities (benzoate, octanoate, decanoate); format: physicochemical; details: pH 6.5, 1,000 ppm nicotine
Method: A pH probe was submerged in the resulting liquid and HCl (0.05 M) was added under stirring to bring the solution to pH 6.5. The flask weight was then brought up to 100 grams with RO water. […] Partitioning was performed by removing aliquots (10 mL) of each solution and placing into separate 20 ml scintillation vials. Octanol (10 ml) was added to each vial. The vials were then placed on a wrist action shaker for 20 minutes. Following agitation, the vials were allowed to separate for 30 min, and an aliquot (100 μl) of each octanol layer was removed and diluted with 900 μl octanol in 2 mL GC/MS vials.

O=C(O)c1ccccc1 [benzoic acid]
concentration in octanol ([1]; 1000 ppm nicotine, 1 molar equivalent sodium benzoate, unbuffered water): 19.2 ppm | benzoic acid molarity in octanol in terms of nicotine mass ([1]; calculated as ppm nicotine): 25.5 ppm

CCCCCCCCCC(=O)O [decanoic acid]
octanol-water partitioning, in words [2]: prone to becoming soapy during the vigorous mixing; also recorded: partition into octanol to an extent less than that expected by theory

CN1CCCC1c1cccnc1 (centres unmarked) [nicotine, reference compound]
% nicotine in octanol (FIG. 6) ([2]; 10 eq. octanoic acid): ~ 75% | % nicotine in octanol (FIG. 6) ([2]; benzoic acid at same concentration (10 eq.)): ~ 52%

Source: patent publication US20260355176A1 (NICOVENTURES TRADING LIMITED, priority 2019, published 2026)
